The source of these data is article PMC11357102, “Thiazole Functionalization of Thiosemicarbazone for Cu(II) Complexation: Moving toward Highly Efficient Anticancer Drugs with Promising Oral Bioavailability” (Molecules, 2024).

Structures are written as SMILES.

Broadly, the IC50 is the concentration that inhibits the measured activity by half. Read a high IC50 as weaker potency in that assay. A word on the AUC(0-inf): it is the area under the concentration-time curve extrapolated to infinity. High values mean high exposure, low ones low exposure. The term AUC(0-t) denotes exposure summed from dosing to a finite time, without extrapolation to infinity. Higher therefore signals more exposure. As usually defined, the MRT last is a mean duration of stay, worked out from the concentration-time curve. By half-life is commonly meant the time in which the quantity being followed falls by half. A high value points to slow loss. For orientation: Cmax means the maximum level reached in the sampled fluid or tissue. By Tmax is commonly meant the time from dosing to the highest level.

The conditions of data set [1]: clinical trials; cited from earlier work.
The subject of another data set is Hep-G2 cells. Briefly: CCK-8 cytotoxicity assay, Hep-G2. The class given is cell-based. To be noted: Homo sapiens, HepG2; Hep-G2, CCK-8, 72 h incubation, n = 3. On the procedure:
(§1) The cytotoxicity of HL, 1, and 2 against three hepatocellular carcinoma cell lines Hep-G2, PLC/PRF/5, and HuH-7 were evaluated by the cell counting kit-8 (CCK-8; APExBIO Technology, Houston, TX, USA) assay.
(§2) The HuH-7 cell line was cultured in DMEM + 10% FBS + 1% P/S and DMEM + 1% P/S. Cells grew as a monolayer and were detached upon confluence using trypsin (0.5% w/v in PBS). The cells were harvested from the cell culture medium by incubation in trypsin solution for 3 min, and they were then centrifuged with the supernatant and subsequently discarded. A 3 mL portion of serum-supplemented cell culture medium was added to neutralize any residual trypsin. The cells were re-suspended in serum-supplemented DMEM at a concentration of 5 × 10^4 cells/mL. […] After incubation, 100 μL of culture medium (DMEM + 10% FBS + 1% P/S) and 10 μL of CCK-8 was introduced and cultured for an additional 2 h before spectrophotometric measurement at 450 nm on a microplate reader. The relative cell viability (%) related to control cells was calculated using the equation: V%=[A]experimental−[A]blank/[A]control−[A]blank×100% where V% is the percentage of cell viability, [A]experimental is the absorbance of the wells culturing the treated cells, [A]blank is the absorbance of the blank, and [A]control is the absorbance of the wells culturing untreated cells. […]
Background: Tetrazolium dyes change colour on reduction, which living cells bring about.

In another data set the test system is PLC/PRF/5 cells. Briefly: CCK-8 cytotoxicity assay, PLC/PRF/5. Format: cell-based. The settings on record: Homo sapiens; PLC/PRF/5, CCK-8, 72 h incubation, n = 3. How it is done:
as §1, §2

Data set [2] has as its system HuH-7 cells. Briefly: CCK-8 cytotoxicity assay, HuH-7. The settings on record: Homo sapiens; HuH-7, CCK-8, 72 h incubation, n = 3. Format: cell-based. How it is done:
as §1, §2

The nature of data set [3]: Hydroxyl radical (•OH) production from H2O2, TMB assay. The settings on record: 5, 10, 20, 30 μg/mL HL or equivalent HL, 100 μM H2O2, 20 min incubation.
Protocol: The generation of •OH from H2O2 by HL, 1, and 2 was assayed by 3,3′,5,5′-tetramethylbenzidine (TMB) [12, 28, 29]. The colorless TMB can be quickly oxidized by •OH to give a characteristic blue charge-transfer complex oxTMB with intense absorption at 652 nm [30, 31]. Different concentrations of HL (5, 10, 20, 30 μg/mL) or 1 and 2 containing equivalent HL were treated with (TMB) solution containing 100 μM H2O2, which is assumed as approximately the concentration reported to be present in tumor cells, or five times that in normal cells [32, 33].
In data set [4] the test system is HuH-7 cells. The data set can be described thus: Intracellular ROS generation, DCFH-DA probe. The class given is cell-based. The settings on record: HuH-7, equivalent HL concentration 2 μg/mL, 2 h. An excerpt: Given the efficient •OH production in water induced by 1 and 2, we next investigated in vitro ROS generation by 1 and 2 in the representative HuH-7 cell line using 2′,7′-dichlorodihydrofluorescein diacetate (DCFH-DA) as a fluorescence probe and compared it with that of HL [34, 35]. The non-emissive DCFH-DA can be readily uptaken by the cell, where it is hydrolyzed into 2,7-dichlorodihydrofluorescein (DCFH) by cellular enzymes. Upon oxidation by ROS, DCFH can convert to 2,7-dichlorofluorescein (DCF), which gives bright green fluorescence.
HuH-7 cells were introduced into a 12-well plate (4 × 10^5 per well) in 1 mL of growing media (DMEM + 10% FBS + 1% P/S), and the cells were incubated at 37 °C under 5% CO2 for 24 h for attachment. The growing media were removed, and the wells were replenished with HL, 1, and 2 in 1 mL of growing media (with 2 ppm of DMSO) with equivalent HL concentrations of 2 μg/mL. The cells were incubated for an additional 2 h, and then the culturing media was replaced with […] DCFH-DA in DMEM + 1% P/S (1 mL), prepared by diluting (1:1000) a concentrated DCFH-DA following the supplied protocols. The cells were incubated for a further 20 min, and then the culturing media was removed. […]

A short description of data set [5]: In vivo pharmacokinetic study of HL (plasma, HPLC). The arrangement: species or system CD®(SD) IGS rats. How it is done:
For pharmacokinetic studies, CD®(SD) IGS rats (5−6 weeks old) were randomly divided into two groups (three for each group) for oral administration (per os, PO) or intravenous administration (i.v.) of HL with dosages of 30 mg kg^−1 and 0.5 mg kg^−1, respectively (Tables S3 and S4). The blood was then collected from the orbital sinus with a heparinized syringe at different time intervals (0.5, 1.0, 2.0, 4.0, 8.0, and 24 h for PO, and 0.03, 0.5, 1.0, 2.0, 4.0, 8.0, and 24 h for i.v.).
CD®(SD) IGS rats (5–6 weeks old) were purchased from Beijing Vital River Laboratory Animal Technology Co., Ltd. (Beijing, China). All animal experiments were conducted in accordance with the requirements of the Experimental Animal Welfare Ethics Committee of Transcenta Diagnostic Technology (Suzhou) Co., Ltd. (PZ-20211210001). For pharmacokinetic experiments, SD rats were randomly divided into two groups, with 3 for PO administration (30 mg kg^−1) and i.v. administration (0.5 mg kg^−1), respectively. Plasma was collected from the jugular vein with the presence of a heparinized syringe at different time intervals, viz. 0.5, 1.0, 2.0, 4.0, 8.0, and 24 h for PO and 0.03, 0.5, 1.0, 2.0, 4.0, 8.0, and 24 h for i.v. Plasma was first centrifuged at 3500 rpm for 10 min, and then 0.05 mL of the plasma was extracted; trifluoroacetic acid was used to acid precipitate protein, and NaOH was used to neutralize the solution. The mixture was diluted using MeCN: H2O (5:5 v/v). After 10 min of precipitating, supernatant fluids were collected by centrifugation at 10,000 rpm for 5 min and filtered with a syringe through a 0.22 μm hydrophilic membrane filter and measured using the HPLC method. For the HPLC assay, the analytical column was an Agilent ZORBAX SB C18 column (4.6 mm × 150 mm, 5 μm). The mobile phase was MeCN:H2O (5:5 v/v), the flow rate of the mobile phase was 0.8 mL min^−1, and the UV detector was set at 245 nm.

For the next data set, the system named is CD®(SD) IGS rats. Briefly: Toxicological study of HL, daily PO administration. The class given is in vivo. On the procedure:
Their weight and status were monitored and compared with the control group (groups 1 and 2) that was fed sterilizing solutions. […] This highlights that a 5 mg kg^−1 drug dosage of HL by PO administration is safe for in vivo studies.
The weight of the rats was continuously monitored over 27 days, and they were fed on day 1, 4, 8, 13, 16, 19, and 23.

Data set [6] can be described thus: Stability of MeOH solutions by UV-Vis. The settings on record: HL/L concentration 30 μg/mL, kept for 72 h.
The mark [7] stands for this setting: CD(SD) IGS (SD), rat, plasma, iv, 0.5 mg kg−1, mean, n = 3.
The mark [8] stands for this setting: CD(SD) IGS (SD), rat, plasma, iv, 0.5 mg/kg, 0.5 mg kg−1, mean, n = 3.
The mark [9] stands for this setting: CD(SD) IGS (SD), rat, plasma, po, 30 mg/kg, 30 mg kg−1, mean, n = 3.
The mark [10] stands for this setting: CD(SD) IGS (SD), rat, plasma, PO, 30 mg kg−1, mean, n = 3.

Regarding `S=C(N/N=C1\CCCc2cccnc21)N1CCN(c2ccccn2)CC1` [COTI-2, 4-(pyridine-2-yl)-N-([(8E)-5,6,7,8-tetrahydroquinolin-8-ylidene]amino)piperazine-1-carbothioamide], the side effects result in data set [1] is “drug resistance and other adverse effects (i.e., nausea, vomiting, and fatigue)”.

For `NC(=S)NN=Cc1ncccc1N` [Triapine, 3-aminopyridine-2-carboxaldehyde thiosemicarbazone], the side effects result in data set [1] is listed as “formation of methemoglobin hypoxia”.

With `S=C(NN=C(c1ccccn1)c1ccccn1)N1CCN(c2nccs2)CC1` [HL, N′-(di(pyridin-2-yl)methylene)-4-(thiazol-2-yl)piperazine-1-carbothiohydrazide], the half-inhibitory concentration (IC50) in the data set on Hep-G2 cells is 78.8 µM; with PLC/PRF/5 cells, 3.26 µM; with HuH-7 cells [2], 192 µM. Moreover, the “generation of •OH from H2O2 (oxTMB, absorption at 652 nm)” value in data set [3] was “no oxTMB found”. For the same molecule, in the data set with HuH-7 cells [4], the “intracellular ROS generation (DCF fluorescence)” value was “negligible ROS”. Moreover, the AUC(0-inf) came to 5700 ± 2650 ng·h/mL in data set [5] (setting [7]) and 10400 ± 5310 ng·h/mL in data set [5] (setting [10]). For the same molecule, the AUC(0-t) in data set [5] (setting [7]) amounted to 4210 ng·h/mL; in data set [5] (setting [10]), 5340 ng·h/mL. Further, the C0 in data set [5] (setting [7]) came out at 858 ng/mL. The MRT last is 7.85 h in data set [5] (setting [7]) and 9.4 h in data set [5] (setting [10]). In addition, the half-life is 713 ± 99.6 min in [5] (setting [7]) and 1300 ± 564 min in [5] (setting [10]). Moreover, the clearance in data set [5] (CD(SD) IGS (SD), rat, plasma, iv, 0.5 mg kg−1, mean, n = 3, read-out: Cl_obs (converted)) was 1.8 mL/min/kg. In data set [5] (CD(SD) IGS (SD), rat, plasma, iv, 0.5 mg kg−1, sampling time 0.03 h), this molecule came in with a concentration at 0.03 h of 806 ng/mL. Moreover, the concentration at 0.5 h in data set [5] (CD(SD) IGS (SD), rat, plasma, iv, 0.5 mg kg−1, sampling time 0.50 h) was found to be 349 ng/mL; in data set [5] (CD(SD) IGS (SD), rat, plasma, PO, 30 mg kg−1, sampling time 0.50 h) it was 242 ng/mL. Besides, the concentration at 1 h was determined as 341 ng/mL in data set [5] (CD(SD) IGS (SD), rat, plasma, iv, 0.5 mg kg−1, sampling time 1.00 h) and 426 ng/mL in data set [5] (CD(SD) IGS (SD), rat, plasma, PO, 30 mg kg−1, sampling time 1.00 h). For the same molecule, the concentration at 2 h in data set [5] (CD(SD) IGS (SD), rat, plasma, iv, 0.5 mg kg−1, sampling time 2.00 h) was 372 ng/mL; in data set [5] (CD(SD) IGS (SD), rat, plasma, PO, 30 mg kg−1, sampling time 2.00 h), 410 ng/mL. Moreover, the concentration at 4 h in data set [5] (CD(SD) IGS (SD), rat, plasma, iv, 0.5 mg kg−1, sampling time 4.00 h) was 240 ng/mL; in data set [5] (CD(SD) IGS (SD), rat, plasma, PO, 30 mg kg−1, sampling time 4.00 h), 316 ng/mL. Besides, the concentration at 8 h in data set [5] (CD(SD) IGS (SD), rat, plasma, iv, 0.5 mg kg−1, sampling time 8.00 h) is 163 ng/mL; in data set [5] (CD(SD) IGS (SD), rat, plasma, PO, 30 mg kg−1, sampling time 8.00 h), 218 ng/mL. The concentration at 24 h in data set [5] (CD(SD) IGS (SD), rat, plasma, iv, 0.5 mg kg−1, sampling time 24.00 h) was 83.8 ng/mL; in data set [5] (CD(SD) IGS (SD), rat, plasma, PO, 30 mg kg−1, sampling time 24.00 h), 145 ng/mL. The figures for the Cmax in data set [5] (setting [8]) and in data set [5] (setting [9]) were 806 ± 46.7 ng/mL and 472 ng/mL, respectively. In addition, the time to peak (Tmax) in [5] (setting [8]) was determined as 1.8 min; in [5] (setting [9]), 70.2 min. Further, the CL/F in data set [5] (CD(SD) IGS (SD), rat, plasma, PO, 30 mg kg−1, mean, n = 3, read-out: Cl_F_obs (converted)) was 55.6 mL/min/kg. In addition, in data set [5] (PO, 30 mg kg−1, mean, n = 3), the Vz_F_obs was 93074.16 mL/kg. In addition, the Vss_obs in data set [5] (i.v., 0.5 mg kg−1, mean, n = 3) came out at 1755.47 mL/kg. In addition, the Vz_obs in data set [5] (i.v., 0.5 mg kg−1, mean, n = 3) was found to be 1752.31 mL/kg. The “body weight of rats” value in the data set on CD®(SD) IGS rats (daily 5 mg kg−1 (12.2 μmol kg−1), groups 3 and 4, similar to control groups 1 and 2) was “constantly growing”. Further, in the data set on CD®(SD) IGS rats (daily 10 mg kg−1 (24.4 μmol kg−1), groups 5 and 6), the “rats with abnormal behaviors (decreasing food uptake, cachexia, lethargy) on day 9, which died or were euthanized after drug suspension” value is “four of six”. Also, the “stability of MeOH solution (UV-Vis absorption pattern)” value in data set [6] is listed as “remained stable”.

With `NC(=S)NN=Cc1ccc(O)cn1` [Compound 5-HP, 5-hydroxypicolinaldehyde thiosemicarbazone], the side effects result in data set [1] is “severe hematological and gastrointestinal side effects”.
